The values that follow are results of earlier work, collected in patent US6339063B1, “9a-azalides as veterinary antimicrobial agents” (Merck & Co., Inc., priority 1997, dated 2002).

Each structure is given as a SMILES string.

This data set deals with Pasteurella multocida. The settings on record: as said in U.S. Pat. Nos. 4,474,768, 4,464,527 and 4,526,889.

For the molecule `CCC1OC(=O)C(C)C(OC2CC(C)(OC)C(O)C(C)O2)C(C)C(OC2OC(C)CC(N(C)C)C2O)C(C)(O)CC(C)CN(C)C(C)C(O)C1(C)O` (stereo not drawn) [4″-epi-azithromycin], the “activity against Pasteurella multocida in vitro” value was “active”. As for `CC[C@H]1OC(=O)[C@H](C)[C@@H](O[C@H]2C[C@@](C)(OC)[C@@H](O)[C@H](C)O2)[C@H](C)[C@@H](O[C@@H]2O[C@H](C)C[C@H](N(C)C)[C@H]2O)[C@](C)(O)C[C@@H](C)CN(C)[C@H](C)[C@@H](O)[C@]1(C)O` [azithromycin, 9-deoxo-9a-aza-9a-methyl-9a-homoerythromycin A], the “activity against Pasteurella multocida in vitro” value is listed as “active”.
